From paper PMC12722920, “Pharmacokinetics and pharmacodynamics of cannabigerol (CBG) in the C57BL/6Crl mouse” (Frontiers in Pharmacology, 2025)

Columns and labels:
[1] = Phase I pharmacokinetic profile: blood concentration vs time by HPLC-MS/MS after a single 10 mg/kg dose; type: in vivo, C57BL/6Crl mice; conditions: for k (terminal phase rate constant): noncompartmental
Protocol: In phase I, male mice were randomly assigned to Groups A, B, C, or D. Interventions per group are specified in Figure 2. Each group was divided into 3 cohorts and randomly assigned to receive p.o., i.p., or i.v. administration. Oral (p.o.) administration cohorts received 10 mg/kg CBG in olive oil with 10% DMSO, and i.p. and i.v. cohorts received 10 mg/kg CBG with 10% DMSO and vehicle (1:1:18 ethanol: kolliphor: saline). PK profiles were developed for blood collection at 10 min, 30 min, 1 h, 3 h, 6 h, 12 h, 18 h, and 24 h. Blood collection was performed using a destructive sampling method, with each mouse providing blood at two time point collections. The initial blood draw aimed to obtain a 100 µL blood sample from the left leg lateral saphenous vein of the mouse, and the second blood draw from the same mouse involved the administration of isoflurane (3%–5%) followed by exsanguination via cardiac puncture. Group A was subjected to two time point blood draws, at 10 min and at 30 min. Groups B-D were first subjected to the cannabinoid-induced tetrad assay, then two time point blood draws. Due to time constraints, the open field test (OFT) was not performed in Phase I.
Blood collection from the saphenous leg vein was drawn into a RAM Scientific Safe-T-Fill™ Capillary blood collection system containing heparin and lithium (Waltham, Massachusetts, U.S). Blood collection from the cardiac puncture was drawn into a syringe and transferred to a 2 mL blood collection tube containing heparin and lithium. Samples were immediately placed on ice, transferred to LoBind® tubes as quickly as possible, and then stored at −80 °C. The blood concentrations of CBG were determined using High-Performance Liquid Chromatography-Tandem Mass Spectrometry (HPLC-MS/MS).
The PK parameters for CBG were determined by GraphPad Prism (v. 10.2.3). Linear regression analysis natural log of the concentration versus time curve was utilized to derive the terminal phase rate constant (k), from which the terminal phase half-life (t1/2) was calculated using the ratio (0.693/k). For both p.o. and i.p. administration, the Cmax was obtained directly from visual inspection of the blood concentration versus time profiles. For the purposes of this study, Tmax refers to the time at which Cmax was reported. The log-linear trapezoidal method was used to calculate the total area under the curve (AUC) of the average blood concentrations versus time profile with extrapolation to infinity, where the tail of the AUC (i.e., last concentration extrapolated to infinity) was calculated as the ratio Cp,last/k. Bioavailability was estimated by dividing the mean total AUC∞ for each route of administration by the total AUC observed for each compound following i.v. administration (where F = 100%, by definition). Systemic clearance (ClS) was calculated as the ratio Dose i.v. /AUC ∞ . The apparent volume of distribution (Vd) was calculated as Dose i.v. /(k × AUC ∞ ).
HPLC-MS/MS was used to quantify CBG in the blood using a 1,260 Agilent (Agilent Technologies Canada, Mississauga, ON) High Performance Liquid Chromatography (HPLC) system connected to an AB Sciex 4,000 Hybrid Triple Quadruple Linear Ion Trap Mass Spectrometer (QTRAP) equipped with a Turboionspray™ interface (AB Sciex, Concord, ON). The analytical method was developed and validated for mouse blood. An Infinity lab Phenyl Hexyl column (4.6 × 12.5 mm, 5 μm) and guard column (4.6 × 12.5 mm, 5 μm) were used to separate compounds, and the temperature was set to 50 °C.

C57BL/6Crl mice = experiment: Open field test (OFT): locomotion and anxiety-like behaviour; type: in vivo
Protocol: Catalepsy was assessed in the ring holding assay; mice were positioned with their forepaws grasping onto a 0.5 cm thick ring clamp elevated 5 cm above the testing surface. The duration of time while the ring was held was recorded in seconds, with each trial terminated if the mouse’s forepaw released from the bar, upon turning of the head or body, or after 60 s of immobility. Catalepsy was evaluated three times consecutively, and the average time spent holding the bar was reported as a percent of the maximum possible effect (% MPE, up to 60 s). Internal body temperature was measured via a rectal thermometer. Nociception was determined by assessing tail-flick latency, where mice were restrained with their tails placed ∼1 cm into 52 °C ± 2 °C water. The time (sec) until the tail was removed was measured, with observations ending at 20 s and represented as a % MPE. Locomotion and anxiety-like behaviour were assessed in the OFT. Mice were placed in an open space (90 cm × 90 cm) and recorded for 5 min. Total distance travelled (cm), velocity (cm/sec), time in the centre quadrant (sec), and central quadrant entries were measured with EthoVision XT (Noldus Information Technology Inc., Leesburg, VA).
In Phase I (Part B), after determining the timepoint at which blood CBG concentrations were highest for each respective route of administration, the timing for each measure in the tetrad was adjusted. An assessment was conducted in a new cohort consisting of both male and female mice (n = 4 per sex per route) receiving a dose of 10 mg/kg of CBG via i.v., i.p., or p.o. routes. For those administered with i.v. CBG, the timing was: catalepsy at 5 min, body temperature at 15 min, tail-flick latency at 20 min, and OFT at 25 min post-injection. For i.p. CBG, measurements were taken at 20 min for catalepsy, 25 min for body temperature, 30 min for tail-flick latency, and 35 min for OFT post-injection. For p.o. CBG, data collection was scheduled as follows: catalepsy at 170 min, body temperature at 175 min, tail-flick latency at 180 min, and OFT at 185 min post-injection.

[2] = design: method as in Newmeyer et al., 2016; conditions: ref Newmeyer et al., 2016, cited from earlier work
CD-1 mice = test system: CD-1 mice; design: method as in Schwarz et al., 2024; conditions: 100 mg/kg i.p., not at 10 or 320 mg/kg, ref Schwarz et al., 2024, cited from earlier work
humans = test system: humans; design: method as in Cuttler et al., 2024; conditions: oral 20 mg CBG; ref Cuttler et al., 2024; cited from earlier work
[3] = 10 mg/kg i.v., male mice, blood
[4] = C57BL/6Crl, mouse, whole blood, ip, 10 mg/kg i.p., male mice, blood
[5] = C57BL/6Crl, mouse, whole blood, iv, 10 mg/kg i.v., male mice, blood
[6] = C57BL/6Crl, mouse, whole blood, po, 10 mg/kg p.o., male mice, blood

## CCCCCc1cc(O)c(C/C=C(\C)CCC=C(C)C)c(O)c1 [CBG, cannabigerol]
[1]; 10 mg/kg CBG, male mice
  p.o. Cmax as percent of i.p. Cmax: 2%
[1]; 10 mg/kg i.p., male mice, blood
  k (terminal phase rate constant): 0.069 h⁻¹
[1]; [3]
  α: 1.016 h⁻¹
  k (terminal phase rate constant): 0.0698 h⁻¹
[1]; [4]
  AUC(0-inf): 1170 ng·h/mL
  Cmax: 516 ng/mL
  Tmax: 0.5 h
  half-life: 10 h
[1]; [5]
  AUC(0-inf): 2800 ng·h/mL
  half-life: 9.9 h
[1]; C57BL/6Crl, mouse, whole blood, iv, 10 mg/kg i.v., male mice, read-out: ClS (systemic clearance)
  clearance: 59.4 mL/min/kg
[1]; C57BL/6Crl, mouse, whole blood, iv, 10 mg/kg i.v., male mice, read-out: Vd (apparent volume of distribution)
  Vd: 51.1 L/kg
[1]; [6]
  Cmax: 10.5 ng/mL
  Tmax: 3 h
[1]; male, C57BL/6Crl, mouse, whole blood, iv, 10 mg/kg, i.v., males, read-out: C at 10 min (blood concentration 10 min post-administration)
  concentration at 10 min: 2840 ng/mL
C57BL/6Crl mice; 10 mg/kg i.p. or p.o.
  OFT time in the center, CBG compared to THC: spent significantly more time in the center
C57BL/6Crl mice; 10 mg/kg i.p., CBG 35 min post-administration
  OFT velocity: reduced velocity compared to both i.p. vehicle and THC administration
C57BL/6Crl mice; 10 mg/kg i.p., compared to i.p. THC
  OFT total distance travelled: total distance travelled was reduced
C57BL/6Crl mice; 10 mg/kg i.p., compared to vehicle
  OFT entries to the center: entered the center fewer times than their vehicle-treated counterparts
C57BL/6Crl mice; 10 mg/kg i.v., 25 min post-administration, male and female mice
  OFT velocity: reduced velocity compared to vehicle treatment
C57BL/6Crl mice; 10 mg/kg i.v., compared to i.v. vehicle
  OFT total distance travelled: total distance travelled was reduced
C57BL/6Crl mice; 10 mg/kg i.v., compared to the vehicle
  OFT time in the center: Time in the center was reduced
C57BL/6Crl mice; 10 mg/kg i.v., compared to vehicle
  OFT entries to the center: entered the center fewer times than their vehicle-treated counterparts
C57BL/6Crl mice; 10 mg/kg p.o.
  OFT entries to the center: entered the center of the OFT more times than mice given CBG i.v.
C57BL/6Crl mice; 10 mg/kg p.o., CBG 185 min post-administration
  OFT velocity: reduced velocity compared to p.o. THC
[2]; cannabis administered orally
  detection in blood after oral cannabis: not detected
[2]; frequent cannabis smokers
  time CBG was detected after smoking: up to 17 min
  time CBG was detected following vaporization: up to 13 min
CD-1 mice; 20 min post-injection
  anti-nociception: anti-nociception
CD-1 mice; 30 min post-injection
  hypothermia: resulted in hypothermia
humans
  reduction in anxiety levels from baseline: 26.5%
